Earlier results, collected in patent publication US9308243B2, “Cellular enhancements in biological systems through the use of li-pofullerene and peptide group combinations” (LivePet, LLC, priority 2014, dated 2016).

System: male flies
Details: tiny amount added to food supply

**Q.** For NCCC(=O)N[C@@H](Cc1c[nH]cn1)C(=O)O [carnosine, L-Carnosine], which “increase in the average life span” value is on record?
**A.** Its value is 20%.
